In ChEMBL document CHEMBL5291721, “A preclinical secondary pharmacology resource illuminates target-adverse drug reaction associations of marketed drugs” (Nat Commun, 2023):

Assays:
[1] = target: Beta-1 adrenergic receptor (Homo sapiens, UniProt P08588); assay type: functional
[2] = target: Gamma-aminobutyric acid receptor subunit alpha-1 (Rattus norvegicus, UniProt P62813)
Histamine H2 receptor = Histamine H2 receptor (Homo sapiens, UniProt P25021); assay type: functional, cell-based
D(3) dopamine receptor = D(3) dopamine receptor (Homo sapiens, UniProt P35462)
Motilin receptor = Motilin receptor (Homo sapiens, UniProt O43193)
Adenosine receptor A2a = Adenosine receptor A2a (Homo sapiens, UniProt P29274)
[3] = target: T1, Cholecystokinin receptor type A (Homo sapiens, UniProt P32238)
T1 sequence (P32238 whole entry): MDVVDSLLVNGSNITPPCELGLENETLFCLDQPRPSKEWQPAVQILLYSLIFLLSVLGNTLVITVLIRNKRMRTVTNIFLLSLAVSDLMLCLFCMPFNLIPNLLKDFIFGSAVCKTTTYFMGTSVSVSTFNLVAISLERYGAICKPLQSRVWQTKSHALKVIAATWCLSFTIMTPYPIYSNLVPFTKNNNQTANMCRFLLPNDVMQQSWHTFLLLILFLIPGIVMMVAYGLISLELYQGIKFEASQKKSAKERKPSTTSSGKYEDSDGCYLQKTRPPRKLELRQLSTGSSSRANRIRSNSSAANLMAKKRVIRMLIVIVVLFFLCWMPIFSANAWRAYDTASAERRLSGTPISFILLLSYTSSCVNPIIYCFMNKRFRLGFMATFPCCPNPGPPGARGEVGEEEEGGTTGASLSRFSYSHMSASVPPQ

Adenosine receptor A1 = target: T2, Adenosine receptor A1 (Homo sapiens, UniProt P30542)
T2 sequence (P30542 whole entry): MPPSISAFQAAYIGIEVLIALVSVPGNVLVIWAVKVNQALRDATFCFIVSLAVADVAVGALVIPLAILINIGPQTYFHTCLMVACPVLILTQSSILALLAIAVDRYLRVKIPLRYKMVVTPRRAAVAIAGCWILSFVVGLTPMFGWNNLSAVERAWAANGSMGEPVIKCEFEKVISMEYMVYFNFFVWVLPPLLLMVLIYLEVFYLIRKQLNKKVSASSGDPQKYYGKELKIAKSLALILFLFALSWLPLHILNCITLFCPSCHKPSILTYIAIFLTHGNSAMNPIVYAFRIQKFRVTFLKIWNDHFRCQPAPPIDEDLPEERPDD

[4] = target: Beta-2 adrenergic receptor (Homo sapiens, UniProt P07550)
[5] = target: T3, Neuropeptide Y receptor type 1 (Homo sapiens, UniProt P25929)
T3 sequence (P25929 whole entry): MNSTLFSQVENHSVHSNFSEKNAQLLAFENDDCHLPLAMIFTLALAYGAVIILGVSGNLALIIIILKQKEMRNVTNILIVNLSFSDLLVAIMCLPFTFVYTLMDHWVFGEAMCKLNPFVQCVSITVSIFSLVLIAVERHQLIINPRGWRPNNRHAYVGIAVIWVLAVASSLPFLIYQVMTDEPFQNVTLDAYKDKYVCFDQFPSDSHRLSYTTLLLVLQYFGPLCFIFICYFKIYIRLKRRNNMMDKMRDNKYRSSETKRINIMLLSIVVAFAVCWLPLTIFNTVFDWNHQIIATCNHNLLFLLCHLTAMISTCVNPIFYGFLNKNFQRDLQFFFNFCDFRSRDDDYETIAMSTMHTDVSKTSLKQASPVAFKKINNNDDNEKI

[6] = target: 5-hydroxytryptamine receptor 2B (Homo sapiens, UniProt P41595); assay type: functional, cell-based
[7] = target: T4, Alpha-2A adrenergic receptor (Homo sapiens, UniProt P08913); assay type: functional, cell-based
T4 sequence (P08913 whole entry): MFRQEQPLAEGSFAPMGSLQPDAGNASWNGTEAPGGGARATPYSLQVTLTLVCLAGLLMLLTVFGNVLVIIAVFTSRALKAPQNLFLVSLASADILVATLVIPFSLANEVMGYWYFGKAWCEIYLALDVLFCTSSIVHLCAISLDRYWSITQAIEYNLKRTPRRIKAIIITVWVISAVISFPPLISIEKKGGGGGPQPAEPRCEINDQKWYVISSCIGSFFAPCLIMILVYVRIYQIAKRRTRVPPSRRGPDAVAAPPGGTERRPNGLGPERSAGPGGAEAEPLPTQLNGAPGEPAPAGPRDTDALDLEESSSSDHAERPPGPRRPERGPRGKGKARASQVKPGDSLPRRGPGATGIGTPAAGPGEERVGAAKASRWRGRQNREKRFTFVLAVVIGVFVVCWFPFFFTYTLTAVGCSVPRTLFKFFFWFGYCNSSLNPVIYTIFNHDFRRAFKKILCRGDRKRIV

Histamine H3 receptor = Histamine H3 receptor (Homo sapiens, UniProt Q9Y5N1)
Glucocorticoid receptor = target: T5, Glucocorticoid receptor (Homo sapiens, UniProt P04150)
T5 sequence (P04150 whole entry): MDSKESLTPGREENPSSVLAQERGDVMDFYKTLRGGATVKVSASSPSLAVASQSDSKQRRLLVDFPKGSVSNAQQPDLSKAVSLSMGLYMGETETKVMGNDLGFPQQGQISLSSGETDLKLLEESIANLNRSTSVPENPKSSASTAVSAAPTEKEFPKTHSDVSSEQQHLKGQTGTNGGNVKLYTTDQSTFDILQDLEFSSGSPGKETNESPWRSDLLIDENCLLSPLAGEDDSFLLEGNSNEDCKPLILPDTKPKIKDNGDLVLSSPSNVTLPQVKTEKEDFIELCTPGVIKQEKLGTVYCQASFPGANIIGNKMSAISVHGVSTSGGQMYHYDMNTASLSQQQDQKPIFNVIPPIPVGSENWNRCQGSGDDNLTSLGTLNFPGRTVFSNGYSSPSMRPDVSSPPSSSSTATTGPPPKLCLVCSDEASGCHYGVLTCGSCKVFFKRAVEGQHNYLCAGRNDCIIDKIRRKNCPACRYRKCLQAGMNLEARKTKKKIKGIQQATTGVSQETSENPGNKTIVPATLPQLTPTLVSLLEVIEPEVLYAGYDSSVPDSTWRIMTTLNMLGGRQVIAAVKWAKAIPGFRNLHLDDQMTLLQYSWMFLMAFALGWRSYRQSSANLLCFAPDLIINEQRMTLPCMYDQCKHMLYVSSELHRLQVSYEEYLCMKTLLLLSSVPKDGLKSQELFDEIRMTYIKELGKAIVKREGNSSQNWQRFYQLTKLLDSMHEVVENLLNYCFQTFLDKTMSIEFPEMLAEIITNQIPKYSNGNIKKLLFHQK
Note: assay procedure not described here.

Gamma-aminobutyric acid receptor subunit alpha-1, sequence (P62813 whole entry): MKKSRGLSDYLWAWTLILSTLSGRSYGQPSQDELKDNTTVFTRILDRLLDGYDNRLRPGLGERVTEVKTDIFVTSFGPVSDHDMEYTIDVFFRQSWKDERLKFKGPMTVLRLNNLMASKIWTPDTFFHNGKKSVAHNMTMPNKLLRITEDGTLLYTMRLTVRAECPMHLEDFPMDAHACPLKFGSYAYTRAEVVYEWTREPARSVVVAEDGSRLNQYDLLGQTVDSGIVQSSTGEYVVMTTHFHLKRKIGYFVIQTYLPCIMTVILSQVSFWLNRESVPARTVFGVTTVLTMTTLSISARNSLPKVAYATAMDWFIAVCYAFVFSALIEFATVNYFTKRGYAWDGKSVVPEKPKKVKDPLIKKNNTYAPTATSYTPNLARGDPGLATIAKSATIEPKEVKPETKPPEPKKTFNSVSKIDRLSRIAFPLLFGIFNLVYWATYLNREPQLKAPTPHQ
Adenosine receptor A2a, sequence (P29274 whole entry): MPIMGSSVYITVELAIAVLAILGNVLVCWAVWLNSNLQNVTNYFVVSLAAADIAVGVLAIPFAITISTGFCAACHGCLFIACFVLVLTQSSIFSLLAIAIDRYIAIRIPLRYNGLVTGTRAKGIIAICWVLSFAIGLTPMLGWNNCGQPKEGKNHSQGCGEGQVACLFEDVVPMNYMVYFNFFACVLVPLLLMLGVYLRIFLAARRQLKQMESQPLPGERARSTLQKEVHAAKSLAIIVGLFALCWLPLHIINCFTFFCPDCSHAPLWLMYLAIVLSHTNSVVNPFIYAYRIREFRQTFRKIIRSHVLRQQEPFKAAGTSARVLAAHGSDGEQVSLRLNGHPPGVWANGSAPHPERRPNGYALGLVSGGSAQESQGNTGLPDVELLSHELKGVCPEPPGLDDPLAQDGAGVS
Beta-2 adrenergic receptor, sequence (P07550 whole entry): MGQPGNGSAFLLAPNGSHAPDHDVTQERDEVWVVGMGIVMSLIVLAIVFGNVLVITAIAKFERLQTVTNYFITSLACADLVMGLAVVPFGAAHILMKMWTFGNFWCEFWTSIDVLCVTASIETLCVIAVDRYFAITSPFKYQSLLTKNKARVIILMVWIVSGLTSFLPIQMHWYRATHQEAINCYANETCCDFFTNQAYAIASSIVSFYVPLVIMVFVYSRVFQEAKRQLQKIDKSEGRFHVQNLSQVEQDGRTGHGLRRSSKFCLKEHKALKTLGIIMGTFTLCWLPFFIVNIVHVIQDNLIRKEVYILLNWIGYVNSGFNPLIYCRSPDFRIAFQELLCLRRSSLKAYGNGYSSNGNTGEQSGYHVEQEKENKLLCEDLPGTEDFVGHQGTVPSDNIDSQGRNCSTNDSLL
Histamine H3 receptor, sequence (Q9Y5N1 whole entry): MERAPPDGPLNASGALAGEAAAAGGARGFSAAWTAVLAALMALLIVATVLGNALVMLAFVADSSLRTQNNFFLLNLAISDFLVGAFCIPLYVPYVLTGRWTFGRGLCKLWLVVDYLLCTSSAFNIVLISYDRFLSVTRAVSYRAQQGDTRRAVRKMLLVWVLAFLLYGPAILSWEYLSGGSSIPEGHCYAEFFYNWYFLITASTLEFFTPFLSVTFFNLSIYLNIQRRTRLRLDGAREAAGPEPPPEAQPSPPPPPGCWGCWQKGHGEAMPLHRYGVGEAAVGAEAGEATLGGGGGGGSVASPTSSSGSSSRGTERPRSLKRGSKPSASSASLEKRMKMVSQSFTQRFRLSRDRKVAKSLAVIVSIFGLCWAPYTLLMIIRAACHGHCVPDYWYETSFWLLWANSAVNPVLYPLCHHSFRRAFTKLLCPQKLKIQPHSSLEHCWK
Beta-1 adrenergic receptor, sequence (P08588 whole entry): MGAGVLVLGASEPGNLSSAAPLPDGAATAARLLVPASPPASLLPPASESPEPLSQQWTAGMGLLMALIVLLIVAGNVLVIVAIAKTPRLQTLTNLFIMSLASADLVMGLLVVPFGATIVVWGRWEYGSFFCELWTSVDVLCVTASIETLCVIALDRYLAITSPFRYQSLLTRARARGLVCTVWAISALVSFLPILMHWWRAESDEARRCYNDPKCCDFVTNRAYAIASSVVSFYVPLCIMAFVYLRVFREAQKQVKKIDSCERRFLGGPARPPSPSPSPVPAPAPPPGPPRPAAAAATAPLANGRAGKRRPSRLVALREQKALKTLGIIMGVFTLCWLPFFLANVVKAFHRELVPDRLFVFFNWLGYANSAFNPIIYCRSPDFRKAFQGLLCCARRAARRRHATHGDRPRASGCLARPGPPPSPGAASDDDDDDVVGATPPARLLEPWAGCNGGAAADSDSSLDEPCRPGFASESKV
5-hydroxytryptamine receptor 2B, sequence (P41595 whole entry): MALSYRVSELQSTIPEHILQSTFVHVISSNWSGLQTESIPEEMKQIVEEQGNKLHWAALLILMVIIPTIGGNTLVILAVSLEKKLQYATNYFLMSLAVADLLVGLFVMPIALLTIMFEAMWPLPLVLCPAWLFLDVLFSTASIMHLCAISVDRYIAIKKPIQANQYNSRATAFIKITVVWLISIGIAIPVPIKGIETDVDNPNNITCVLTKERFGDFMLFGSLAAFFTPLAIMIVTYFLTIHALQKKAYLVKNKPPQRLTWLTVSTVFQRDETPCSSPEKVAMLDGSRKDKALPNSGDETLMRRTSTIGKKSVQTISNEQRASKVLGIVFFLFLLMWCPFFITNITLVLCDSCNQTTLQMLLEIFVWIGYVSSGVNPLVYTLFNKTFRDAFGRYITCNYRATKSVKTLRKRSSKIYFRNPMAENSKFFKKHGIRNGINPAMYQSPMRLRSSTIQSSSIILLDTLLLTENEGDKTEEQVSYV
D(3) dopamine receptor, sequence (P35462 whole entry): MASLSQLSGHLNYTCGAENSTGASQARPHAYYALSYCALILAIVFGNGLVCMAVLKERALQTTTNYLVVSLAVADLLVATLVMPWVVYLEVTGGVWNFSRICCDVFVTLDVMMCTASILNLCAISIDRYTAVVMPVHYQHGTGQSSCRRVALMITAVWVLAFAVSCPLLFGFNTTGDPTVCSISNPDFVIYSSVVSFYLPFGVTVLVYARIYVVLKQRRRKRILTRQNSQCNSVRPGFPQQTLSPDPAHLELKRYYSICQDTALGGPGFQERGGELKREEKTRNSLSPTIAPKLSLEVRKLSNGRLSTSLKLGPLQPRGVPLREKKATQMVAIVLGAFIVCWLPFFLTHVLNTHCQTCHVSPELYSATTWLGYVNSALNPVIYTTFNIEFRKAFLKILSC
Histamine H2 receptor, sequence (P25021 whole entry): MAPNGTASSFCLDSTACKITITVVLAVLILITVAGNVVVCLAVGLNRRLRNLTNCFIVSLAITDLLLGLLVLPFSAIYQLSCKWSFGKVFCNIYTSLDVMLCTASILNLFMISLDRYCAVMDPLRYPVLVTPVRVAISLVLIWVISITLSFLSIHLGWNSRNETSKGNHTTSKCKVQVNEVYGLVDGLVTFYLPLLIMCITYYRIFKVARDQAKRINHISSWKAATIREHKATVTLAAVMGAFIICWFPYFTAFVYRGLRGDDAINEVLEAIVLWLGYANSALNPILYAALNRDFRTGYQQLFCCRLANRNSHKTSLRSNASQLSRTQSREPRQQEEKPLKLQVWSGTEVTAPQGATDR
Motilin receptor, sequence (O43193 whole entry): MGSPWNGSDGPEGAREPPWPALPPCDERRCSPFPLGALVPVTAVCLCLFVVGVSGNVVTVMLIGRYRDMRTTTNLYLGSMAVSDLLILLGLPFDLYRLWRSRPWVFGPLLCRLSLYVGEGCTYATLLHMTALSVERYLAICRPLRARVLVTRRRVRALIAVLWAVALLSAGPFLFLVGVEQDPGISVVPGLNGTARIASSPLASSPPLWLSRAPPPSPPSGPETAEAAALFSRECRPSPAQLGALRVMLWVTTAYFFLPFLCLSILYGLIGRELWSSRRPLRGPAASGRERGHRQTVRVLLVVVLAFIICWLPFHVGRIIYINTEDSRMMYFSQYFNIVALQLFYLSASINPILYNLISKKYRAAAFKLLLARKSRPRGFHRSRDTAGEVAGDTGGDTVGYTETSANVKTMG

| Structure (SMILES) | AC50 [1] | AC50 [2] | AC50 (Histamine H2 receptor) | AC50 (D(3) dopamine receptor) | AC50 (Motilin receptor) | AC50 (Adenosine receptor A2a) | AC50 [3] | AC50 (Adenosine receptor A1) | AC50 [4] | AC50 [5] | AC50 [6] | AC50 [7] | AC50 (Histamine H3 receptor) | AC50 (Glucocorticoid receptor) |
| --- | --- | --- | --- | --- | --- | --- | --- | --- | --- | --- | --- | --- | --- | --- |
| CC(CN(C)C)C(C)(O)Cc1ccc(Cl)cc1 (stereo not given) [CLOBUTINOL] | > 30 µM | > 10 µM | > 10 µM | > 30 µM | > 10 µM | > 30 µM | > 30 µM | > 30 µM | > 30 µM | > 30 µM | > 10 µM | > 10 µM | > 10 µM | > 30 µM |
| COc1cc(C)c(/C=C/C(C)=C/C=C/C(C)=C/C(=O)O)c(C)c1C [ACITRETIN] | > 10 µM | > 10 µM | > 10 µM | > 30 µM | > 10 µM | > 10 µM | > 10 µM | > 10 µM | > 10 µM | > 10 µM | > 10 µM | > 10 µM | > 10 µM | > 30 µM |
| CN1CCN=C(c2ccccc2)c2cc(Cl)ccc21 [MEDAZEPAM] | > 30 µM | > 30 µM | > 30 µM | > 30 µM | > 30 µM | > 30 µM | > 30 µM | > 30 µM | > 30 µM | > 30 µM | > 30 µM | > 30 µM | > 30 µM | > 30 µM |
| CCC(NC(C)C)C(O)c1ccc(O)c2[nH]c(=O)ccc12 (stereo not given) [PROCATEROL] | 17 µM | > 30 µM | > 30 µM | > 30 µM | > 30 µM | > 30 µM | > 30 µM | > 30 µM | 0.2 µM | > 30 µM | > 30 µM | > 30 µM | > 30 µM | > 30 µM |
| Cn1c(=O)c2c(ncn2CCOC(=O)C(C)(C)Oc2ccc(Cl)cc2)n(C)c1=O [THEOFIBRATE] | > 30 µM | > 30 µM | > 30 µM | > 30 µM | > 30 µM | > 30 µM | > 30 µM | > 30 µM | > 30 µM | > 30 µM | > 30 µM | > 30 µM | > 30 µM | > 30 µM |
| C=CC[N+]1([C@H]2C[C@H]3[C@@H]4CC[C@H]5C[C@H](O)[C@@H](N6CCOCC6)C[C@]5(C)[C@H]4CC[C@]3(C)[C@H]2OC(C)=O)CCCC1 [ROCURONIUM] | > 30 µM | > 30 µM | > 30 µM | > 30 µM | > 30 µM | > 30 µM | > 30 µM | > 30 µM | > 30 µM | > 30 µM | > 30 µM | > 30 µM | > 30 µM | > 30 µM |
| CCN1CC(CCN2CCOCC2)C(c2ccccc2)(c2ccccc2)C1=O (stereo not given) [DOXAPRAM] | > 30 µM | > 30 µM | > 30 µM | > 30 µM | > 30 µM | > 30 µM | > 30 µM | > 30 µM | > 30 µM | > 30 µM | > 30 µM | > 30 µM | > 30 µM | > 30 µM |
| CC(C)N(CCCCOCC(=O)O)c1cnc(-c2ccccc2)c(-c2ccccc2)n1 | > 30 µM | > 30 µM | > 30 µM | > 30 µM | > 30 µM | > 30 µM | > 10 µM | > 30 µM | > 30 µM | > 30 µM | > 30 µM | > 30 µM | > 30 µM | > 30 µM |
| CCOC(=O)C(C)(C)Oc1ccc(Cl)cc1 [CLOFIBRATE] | > 10 µM | > 10 µM | > 10 µM | > 30 µM | > 10 µM | > 30 µM | > 30 µM | > 30 µM | > 10 µM | > 30 µM | > 10 µM | > 10 µM | > 10 µM | > 30 µM |
| O=C1Nc2ccc(Cl)cc2C(c2ccccc2Cl)=NC1O (stereo not given) [LORAZEPAM] | > 10 µM | > 10 µM | > 10 µM | > 10 µM | > 10 µM | > 30 µM | > 30 µM | > 30 µM | > 10 µM | > 30 µM | > 10 µM | > 10 µM | > 10 µM | > 30 µM |
